Values quoted from earlier work as cited in patent US20070071679A1, “Methylamine risks and treatment of hyperactivity, depression, and alcoholism with epinephrine-N-quinolines” (priority 2005, published 2007).
Where two headings read alike, the source gives them in different places. Each block holds one molecule with its values, some of them ahead of it.

Legend:
[1] = test system: sleep-waking cycles of cats; details: for restoration of relative proportions of stages of sleep-waking cycles towards baseline: cats treated with monoamine reuptake inhibitor; for paradoxical (REM) sleep / active sleep: dose not given
[2] = test system: active sleep in kittens; details: 6-OHDA pretreated, two weeks and one month of postnatal age
[3] = test system: active sleep in a rat model; details: during ontogenetic development
[4] = test system: cerebral blood flow; details: cats
[5] = test system: REM sleep of cats
[6] = test system: regional cerebral blood flow; details: human beings
[7] = test system: active sleep in kittens
[8] = test system: paradoxical (REM) sleep in rats; details: for percentage of paradoxical (REM) sleep: rats aged 34 months, between 4 and 12 hours after i.p. administration
[9] = test system: limbic forebrain and cerebellum of rats
[10] = test system: human patients; details: antihypertensive treatment
[11] = test system: prepubertal boys and patients with narcolepsy or symptomatic hypersomnia
[12] = cats, 0.5 mg/kg of body weight intraperitoneally

Molecule: CNCCCC1(c2ccccc2)CC(C)(C)c2ccccc21 (centres unmarked) [Prindamine]
REM sleep latency ([1]; cats, i.p. administration): lengthening
proportion of time cats are in REM sleep ([1]; during 16 hours after i.p. administration): approximately 7%

Molecule: Clc1cccc(Cl)c1N=C1NCCN1 [clonidine]
paradoxical sleep (REM sleep) ([1]; mature cats, 0.01 mg/kg i.p.): suppresses paradoxical sleep
active sleep ([2]; 0.01 mg/kg i.p.): suppresses active sleep

Molecule: CC(C)NCC(O)c1ccc(O)c(O)c1 (centres unmarked) [isoproterenol]
active sleep [3]: increase active sleep

Molecule: Cc1ccc(N(CC2=NCCN2)c2cccc(O)c2)cc1 [phentolamine]
cerebral blood flow [4]: doubled
restoration of relative proportions of stages of sleep-waking cycles towards baseline [1]: restores significantly
paradoxical (REM) sleep / active sleep ([1]; mature cats): increase active sleep
duration of the episodes cats were in REM sleep ([5]; REM sleep deprivation plus 20 mg/kg i.p. at the beginning of recovery, n.s.): 6.5 ± 1.9 min
number of REM episodes ([5]; given at the beginning of recovery after REM sleep deprivation): did not affect
regional cerebral blood flow [6]: does not affect
active sleep [7]: increase active sleep
frequency of REM sleep episodes in sleep-waking cycles ([8]; rats): increases the frequency of REM sleep episodes
percentage of paradoxical (REM) sleep [8]: increase

Molecule: CC(C)NCC(O)COc1cccc2[nH]ccc12 (centres unmarked) [pindolol]
amount of REM sleep ([1]; cats, 0.1 mg/kg of body weight intraperitoneally): not
amount of REM sleep [1, 12]: increases the amount of REM sleep
amount of drowsy wakefulness [1, 12]: increases the amount of drowsy wakefulness

Molecule: COc1cc2nc(N3CCN(C(=O)c4ccco4)CC3)nc(N)c2cc1OC [prazosin]
restoration of relative proportions of stages of sleep-waking cycles towards baseline [1]: not
paradoxical sleep ([1]; mature cats, 0.5 mg/kg i.p.): increases paradoxical sleep
paradoxical (REM) sleep / active sleep ([1]; mature cats): increases paradoxical (REM) sleep
percentage of paradoxical (REM) sleep [8]: increase
active sleep ([2]; 0.5 mg/kg i.p.): does not affect active sleep

Molecule: CC(C)NC[C@H](O)COc1ccc(O)cc1 [prenalterol]
paradoxical (REM) sleep / active sleep ([1]; mature cats): increases the amount of paradoxical (REM) sleep

Molecule: CC(C)NCC(O)COc1cccc2ccccc12 (centres unmarked) [propranolol]
concentrations of serotonin and 5-HIAA ([9]; after exposure during early development): lack of effect
content of norepinephrine in the limbic forebrain and cerebellum ([9]; at the age of five months after early postnatal exposure): increased content of norepinephrine
restoration of relative proportions of stages of sleep-waking cycles towards baseline [1]: not

share of treated patients with clinical depression [10]: one fourth
Molecule: COC(=O)[C@H]1[C@H]2C[C@@H]3c4[nH]c5cc(OC)ccc5c4CCN3C[C@H]2C[C@@H](OC(=O)c2cc(OC)c(OC)c(OC)c2)[C@@H]1OC [reserpine]

Molecule: COC(=O)[C@@H]1[C@H]2C[C@H]3c4[nH]c5ccccc5c4CCN3C[C@@H]2CC[C@@H]1O [yohimbine]
restoration of relative proportions of stages of sleep-waking cycles towards baseline [1]: not

Molecule: arginine-vasotocin
rapid eye movement sleep [11]: induce rapid eye movement sleep
